In one experiment the test system is CWR22R. The experiment can be described thus: Antiproliferative activity against human 22Rv1 cells incubated for 5 days by CCK-8 method. The settings on record: 22Rv1, 120 h. The format is functional, cell-based.
A further experiment relates to SCC-9. The experiment is described as follows: Antiproliferative activity against human SCC-9 cells incubated for 5 days by CCK-8 method. The format is functional, cell-based. The settings on record: SCC-9, 120 h. A general note: Formazan colour is commonly taken as a measure of viable cells.
Another experiment concerns MCF7. The experiment can be described thus: Antiproliferative activity against human MCF7 cells incubated for 5 days by CCK-8 method. The format is functional, cell-based. The settings on record: MCF7, 120 h.
The target of experiment [1] is T1, CREB-binding protein/Histone acetyltransferase p300 (Homo sapiens) (UniProt Q09472+Q92793). The experiment is described as follows: Inhibition of EP300/CBP bromodomain in human OPM-2 cells assessed as suppression of c-myc expression incubated for 3 days by Western blot analysis. The format is cell-based. The note with it: dose 0.8-5 µM, time 3.0 day, DDE = dose-dependent effect.
T1 sequence (Q09472 whole entry, looked up): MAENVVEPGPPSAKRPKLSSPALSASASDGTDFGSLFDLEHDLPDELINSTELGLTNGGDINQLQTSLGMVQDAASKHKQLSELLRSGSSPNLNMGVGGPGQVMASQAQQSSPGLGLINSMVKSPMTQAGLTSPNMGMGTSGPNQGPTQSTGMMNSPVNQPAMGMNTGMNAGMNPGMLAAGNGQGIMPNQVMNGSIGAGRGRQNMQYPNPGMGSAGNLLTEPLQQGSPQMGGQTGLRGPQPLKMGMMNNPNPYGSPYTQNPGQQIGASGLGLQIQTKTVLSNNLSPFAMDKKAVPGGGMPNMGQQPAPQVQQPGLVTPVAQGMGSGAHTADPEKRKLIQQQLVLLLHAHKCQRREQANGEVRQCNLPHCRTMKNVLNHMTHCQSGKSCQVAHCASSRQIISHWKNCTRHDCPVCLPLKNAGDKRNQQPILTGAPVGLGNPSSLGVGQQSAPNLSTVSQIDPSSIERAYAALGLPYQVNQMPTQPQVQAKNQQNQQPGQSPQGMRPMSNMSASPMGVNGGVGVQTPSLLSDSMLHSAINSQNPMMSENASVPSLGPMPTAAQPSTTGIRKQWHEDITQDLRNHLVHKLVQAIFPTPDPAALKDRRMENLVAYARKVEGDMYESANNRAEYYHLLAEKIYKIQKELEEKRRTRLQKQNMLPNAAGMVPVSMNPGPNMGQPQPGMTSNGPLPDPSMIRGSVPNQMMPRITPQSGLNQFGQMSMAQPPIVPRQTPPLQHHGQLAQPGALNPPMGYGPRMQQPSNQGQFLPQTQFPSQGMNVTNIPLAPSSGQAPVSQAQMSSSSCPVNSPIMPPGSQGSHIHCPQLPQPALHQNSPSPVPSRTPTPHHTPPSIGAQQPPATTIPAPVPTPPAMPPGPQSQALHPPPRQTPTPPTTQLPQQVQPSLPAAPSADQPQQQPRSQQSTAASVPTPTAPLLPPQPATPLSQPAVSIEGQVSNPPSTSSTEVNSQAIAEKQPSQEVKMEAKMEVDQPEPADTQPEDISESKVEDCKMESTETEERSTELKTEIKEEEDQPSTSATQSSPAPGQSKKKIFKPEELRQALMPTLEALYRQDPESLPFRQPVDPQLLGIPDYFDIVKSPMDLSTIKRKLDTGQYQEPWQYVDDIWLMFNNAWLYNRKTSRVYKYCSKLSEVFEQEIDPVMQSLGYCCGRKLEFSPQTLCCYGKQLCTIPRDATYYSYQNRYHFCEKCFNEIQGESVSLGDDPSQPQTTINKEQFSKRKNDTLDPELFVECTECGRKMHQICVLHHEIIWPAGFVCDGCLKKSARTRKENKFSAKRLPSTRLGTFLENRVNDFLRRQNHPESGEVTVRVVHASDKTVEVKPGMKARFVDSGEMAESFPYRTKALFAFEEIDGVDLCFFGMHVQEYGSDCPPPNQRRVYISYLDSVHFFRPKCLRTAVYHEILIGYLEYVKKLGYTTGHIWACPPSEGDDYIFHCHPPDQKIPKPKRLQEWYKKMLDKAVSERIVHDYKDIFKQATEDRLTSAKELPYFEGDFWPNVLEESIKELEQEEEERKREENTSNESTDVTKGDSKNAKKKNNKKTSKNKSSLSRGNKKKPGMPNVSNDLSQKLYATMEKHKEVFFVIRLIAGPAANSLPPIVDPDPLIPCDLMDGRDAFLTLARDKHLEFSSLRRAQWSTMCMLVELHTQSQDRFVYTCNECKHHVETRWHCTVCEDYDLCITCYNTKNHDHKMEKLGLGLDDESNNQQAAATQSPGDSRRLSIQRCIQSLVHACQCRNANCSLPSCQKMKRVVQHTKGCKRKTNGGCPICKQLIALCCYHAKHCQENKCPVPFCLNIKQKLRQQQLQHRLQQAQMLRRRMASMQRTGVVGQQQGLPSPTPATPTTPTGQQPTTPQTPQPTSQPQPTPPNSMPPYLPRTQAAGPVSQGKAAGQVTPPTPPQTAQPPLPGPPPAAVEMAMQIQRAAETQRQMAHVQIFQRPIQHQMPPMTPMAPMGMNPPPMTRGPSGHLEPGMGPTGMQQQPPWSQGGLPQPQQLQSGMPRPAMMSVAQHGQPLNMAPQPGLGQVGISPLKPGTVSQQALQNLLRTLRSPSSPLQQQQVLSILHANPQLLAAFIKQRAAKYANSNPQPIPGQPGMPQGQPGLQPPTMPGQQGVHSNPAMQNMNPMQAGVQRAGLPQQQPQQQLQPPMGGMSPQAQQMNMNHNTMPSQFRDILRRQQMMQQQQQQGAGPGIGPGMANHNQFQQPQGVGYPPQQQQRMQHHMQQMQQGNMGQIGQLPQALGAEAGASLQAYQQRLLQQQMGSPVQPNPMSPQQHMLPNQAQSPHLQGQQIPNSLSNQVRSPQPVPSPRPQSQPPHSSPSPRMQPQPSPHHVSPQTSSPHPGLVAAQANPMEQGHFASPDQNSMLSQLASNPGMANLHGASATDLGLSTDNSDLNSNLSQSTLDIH
T1 sequence (Q92793 whole entry, looked up): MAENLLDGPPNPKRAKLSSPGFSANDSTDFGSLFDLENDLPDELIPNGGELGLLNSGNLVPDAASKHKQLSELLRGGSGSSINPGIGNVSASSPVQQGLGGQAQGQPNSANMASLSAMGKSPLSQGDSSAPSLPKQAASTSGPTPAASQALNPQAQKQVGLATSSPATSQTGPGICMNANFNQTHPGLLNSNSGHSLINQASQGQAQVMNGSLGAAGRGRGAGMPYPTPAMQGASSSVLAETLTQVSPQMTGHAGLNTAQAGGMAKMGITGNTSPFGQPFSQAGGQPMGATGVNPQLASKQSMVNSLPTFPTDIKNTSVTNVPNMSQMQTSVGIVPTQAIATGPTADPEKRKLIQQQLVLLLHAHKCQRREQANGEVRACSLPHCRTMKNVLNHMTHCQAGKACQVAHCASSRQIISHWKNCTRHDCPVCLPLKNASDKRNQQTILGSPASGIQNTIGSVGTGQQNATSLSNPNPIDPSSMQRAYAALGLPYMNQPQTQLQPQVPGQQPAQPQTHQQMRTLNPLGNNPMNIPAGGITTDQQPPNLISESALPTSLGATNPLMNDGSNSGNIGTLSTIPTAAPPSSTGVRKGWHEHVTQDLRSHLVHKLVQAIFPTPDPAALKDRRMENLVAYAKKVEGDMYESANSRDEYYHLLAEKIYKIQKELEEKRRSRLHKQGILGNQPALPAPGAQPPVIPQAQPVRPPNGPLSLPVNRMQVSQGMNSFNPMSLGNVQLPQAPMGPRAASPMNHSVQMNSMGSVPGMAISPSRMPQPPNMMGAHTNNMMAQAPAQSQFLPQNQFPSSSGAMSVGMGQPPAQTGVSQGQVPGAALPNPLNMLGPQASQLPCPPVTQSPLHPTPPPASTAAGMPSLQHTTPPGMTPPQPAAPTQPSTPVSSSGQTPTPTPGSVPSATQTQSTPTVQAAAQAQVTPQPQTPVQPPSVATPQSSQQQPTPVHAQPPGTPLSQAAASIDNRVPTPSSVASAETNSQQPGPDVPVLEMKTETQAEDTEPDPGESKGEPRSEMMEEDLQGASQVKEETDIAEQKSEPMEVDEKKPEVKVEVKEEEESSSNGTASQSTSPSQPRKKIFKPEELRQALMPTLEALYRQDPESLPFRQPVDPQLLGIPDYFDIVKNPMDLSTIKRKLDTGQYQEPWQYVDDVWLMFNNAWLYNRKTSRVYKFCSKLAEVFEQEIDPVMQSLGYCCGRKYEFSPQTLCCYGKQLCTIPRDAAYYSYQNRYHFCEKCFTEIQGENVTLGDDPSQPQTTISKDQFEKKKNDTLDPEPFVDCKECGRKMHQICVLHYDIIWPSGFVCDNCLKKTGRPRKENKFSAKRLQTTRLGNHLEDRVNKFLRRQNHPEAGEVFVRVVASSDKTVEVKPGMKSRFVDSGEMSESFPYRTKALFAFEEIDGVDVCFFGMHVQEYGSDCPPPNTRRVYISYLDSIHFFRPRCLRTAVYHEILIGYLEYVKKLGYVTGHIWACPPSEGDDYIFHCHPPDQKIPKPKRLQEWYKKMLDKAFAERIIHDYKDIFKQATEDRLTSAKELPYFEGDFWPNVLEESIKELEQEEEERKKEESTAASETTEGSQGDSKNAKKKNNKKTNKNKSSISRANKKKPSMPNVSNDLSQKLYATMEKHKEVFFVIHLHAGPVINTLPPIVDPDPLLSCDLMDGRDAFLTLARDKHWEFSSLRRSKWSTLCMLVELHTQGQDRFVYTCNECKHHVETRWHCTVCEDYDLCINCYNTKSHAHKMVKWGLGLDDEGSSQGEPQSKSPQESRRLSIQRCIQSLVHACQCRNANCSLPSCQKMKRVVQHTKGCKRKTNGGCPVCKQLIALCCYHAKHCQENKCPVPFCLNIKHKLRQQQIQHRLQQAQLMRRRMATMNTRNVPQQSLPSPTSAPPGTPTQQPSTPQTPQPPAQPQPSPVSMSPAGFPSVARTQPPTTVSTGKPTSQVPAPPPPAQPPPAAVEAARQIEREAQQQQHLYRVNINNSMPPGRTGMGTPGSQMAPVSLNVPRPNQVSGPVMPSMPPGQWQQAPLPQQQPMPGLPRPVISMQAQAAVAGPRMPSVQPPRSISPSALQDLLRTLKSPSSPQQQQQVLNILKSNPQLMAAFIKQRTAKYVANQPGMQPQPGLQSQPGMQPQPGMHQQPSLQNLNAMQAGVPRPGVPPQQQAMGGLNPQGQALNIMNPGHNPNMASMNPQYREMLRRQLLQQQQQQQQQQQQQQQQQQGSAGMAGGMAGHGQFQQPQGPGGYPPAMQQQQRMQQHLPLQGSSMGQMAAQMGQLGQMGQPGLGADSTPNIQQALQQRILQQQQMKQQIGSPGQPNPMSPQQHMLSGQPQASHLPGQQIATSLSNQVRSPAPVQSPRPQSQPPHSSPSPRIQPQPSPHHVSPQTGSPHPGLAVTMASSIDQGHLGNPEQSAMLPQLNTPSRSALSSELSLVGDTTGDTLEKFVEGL

For experiment [2], the system named is OPM-2. The experiment can be described thus: Antiproliferative activity against human OPM-2 cells incubated for 5 days by CCK-8 method. The format is functional, cell-based. The settings on record: OPM-2, 120 h.
Experiment [3] has as its target T2, Histone acetyltransferase p300 (Homo sapiens, UniProt Q09472). The experiment can be described thus: Inhibition of EP300 bromodomain (unknown origin) incubated for 20 mins by AlphaLISA method.
The target of experiment [4] is T2, Histone acetyltransferase p300. The experiment can be described thus: Binding affinity to recombinant EP300 bromodomain (unknown origin) assessed as change in melting temperature by differential scanning fluorimetry method. (In DSF a fluorescence change marks the thermal transition of the protein.)
In experiment [5] the target is T1, CREB-binding protein/Histone acetyltransferase p300 (Homo sapiens). The experiment can be described thus: Inhibition of EP300/CBP bromodomain in human 22Rv1 cells assessed as suppression of c-myc expression at 0.8 to 5 uM incubated for 3 days by Western blot analysis. The settings on record: dose 0.8-5 µM, time 3.0 day. The format is cell-based.
Experiment [6] concerns OPM-2. The experiment is described as follows: Induction of cell cycle arrest in human OPM-2 cells assessed as accumulation of cells at G1/G0 phase at 5 uM incubated for 48 hrs by PI staining based flow cytometry analysis (reference value: 34.25 %). Format: functional.
For experiment [7], the target named is T1, CREB-binding protein/Histone acetyltransferase p300 (Homo sapiens). The experiment is described as follows: Inhibition of EP300/CBP bromodomain in human OPM-2 cells assessed as suppression of c-myc expression at <= 1 uM incubated for 3 days by Western blot analysis. The note with it: time 3.0 day. The format is cell-based. (In general: Immunoblotting shows a protein as a band on a membrane.)

The test system of experiment [8] is OPM-2. The experiment can be described thus: Induction of apoptosis in human OPM-2 cells assessed as apoptotic cells at 3 uM incubated for 72 hrs by annexin V-FITC/PI staining based flow cytometry analysis. Format: functional.
For experiment [9], the target named is T1, CREB-binding protein/Histone acetyltransferase p300 (Homo sapiens). The experiment can be described thus: Inhibition of EP300/CBP bromodomain in human SCC-9 cells assessed as suppression of c-myc expression at 0.8 to 5 uM incubated for 3 days by Western blot analysis. Format: cell-based. The note with it: dose 0.8-5 µM, time 3.0 day.

pIC50: −log10 of the molar value. Calls of active or inactive are those of the source. The calls are words filed in the database; no cut-off is given here.

T2 sequence (Q09472 whole entry): as the sequence (Q09472 whole entry, looked up) above

The term pIC50 denotes the IC50 on a negative log10 scale, so that one unit is a factor of ten. Low values mean a high IC50, high ones a low IC50. On to `COc1ccc(N2C(=O)C[C@@H]2c2nc3cc(-c4c(C)noc4C)ccc3n2[C@H]2CC[C@H](OC)CC2)cc1Cl`, for which the pIC50 with CWR22R was 5.43; with SCC-9 it was 5.50; in the experiment with MCF7 it was 5.70; in the experiment on OPM-2 [2], 5.81; in experiment [3] it was 7.09. Also, the Activity entry in [1] was “Dde”.
One may read the ΔTm as the change in melting temperature against a reference sample. For `COc1ccc(CCc2nc3cc(CC#N)ccc3n2C[C@H](C)N2CCOCC2)cc1Cl`, the ΔTm in [4] amounted to 1.44 °C.
As for `COc1ccc(CCc2nc3cc(-c4c(C)noc4C)ccc3n2C2CCN(C(C)=O)CC2)cc1Cl`, in experiment [3], the pIC50 was 7.03.
In the case of `COc1ccc(N2C(=O)C[C@H]2c2nc3cc(-c4c(C)noc4C)ccc3n2[C@H]2CC[C@H](OC)CC2)cc1Cl`, the outcome in experiment [5], in experiment [7] and in [9] was Active. Moreover, the pIC50 was 5.43 in the experiment on CWR22R; 5.73 in the experiment with SCC-9; 6.02 with MCF7; 5.96 in the experiment with OPM-2 [2]; 7.31 in [3]. In addition, the Activity in the experiment on OPM-2 [6] is on record as 90%; with OPM-2 [8], 38.27%.
On to `COc1ccc(CCc2nc3cc(-c4c(C)noc4C)ccc3n2[C@H]2CC[C@H](O)CC2)cc1Cl`, for which the pIC50 was 5.17 with CWR22R; 5.43 in the experiment with SCC-9; 5.55 in the experiment on MCF7; 5.86 with OPM-2 [2]; 7.32 in experiment [3]. For the same compound, the Activity is on record as 90% in the experiment with OPM-2 [6] and 28.49% in the experiment with OPM-2 [8]. Moreover, the result in [7] was Active.
On to `COc1ccc(CCc2nc3cc(-c4cnn(C)n4)ccc3n2C[C@H](C)N2CCOCC2)cc1Cl`, for which, in [4], the ΔTm was determined as 4.34 °C.
Still for that read-out and setting: the same measure for `COc1ccc(CCc2nc3cc(S(C)(=O)=O)ccc3n2C[C@H](C)N2CCOCC2)cc1Cl`: 1.07 °C; for `COc1ccc(CCc2nc3cc(NC(C)=O)ccc3n2C[C@H](C)N2CCOCC2)cc1Cl`: 2.97 °C.
`Cc1noc(C)c1-c1ccc2c(c1)nc(C1CC1c1ccccc1)n2[C@H]1CC[C@H](O)CC1` (stereo partly drawn) gave a pIC50 in [3] of 6.58.
Same read-out and setting: the same measure for `COc1ccc2c(Cc3nc4cc(-c5c(C)noc5C)ccc4n3[C@H]3CC[C@H](O)CC3)cc(=O)oc2c1`: 7.32.
With `COc1ccc(CCc2nc3cc(C(C)=O)ccc3n2C[C@H](C)N2CCOCC2)cc1Cl`, in experiment [4], the ΔTm came to 4.1 °C.
Still for that read-out and setting: the same measure for `COc1ccc(CCc2nc3cc(-c4cnn(C)c4)ccc3n2C[C@H](C)N2CCOCC2)cc1Cl`: 2.95 °C; for `COc1ccc(CCc2nc3cc(NS(C)(=O)=O)ccc3n2C[C@H](C)N2CCOCC2)cc1Cl`: 2.51 °C.
The compound `COc1ccc(CCc2nc3cc(-c4c(C)noc4C)ccc3n2[C@H]2CC[C@H](C(F)(F)F)CC2)cc1Cl` gave a pIC50 in experiment [3] of 6.05.
The same measure, in the same setting: the same measure for `COc1ccc(CCc2nc3cc(-c4c(C)noc4C)ccc3n2[C@H]2C[C@H](O)C2)cc1Cl`: 6.81.
Regarding `CNC(=O)Nc1ccc2c(c1)nc(CCc1ccc(OC)c(Cl)c1)n2C[C@H](C)N1CCOCC1`, the ΔTm in [4] was found to be 3.53 °C.
On to `COc1ccc(CCc2nc3cc(-c4c(C)noc4C)ccc3n2C2CC(C)(C)OC(C)(C)C2)cc1Cl`, for which the pIC50 in experiment [3] is 6.95.
As to `COc1ccc(CCc2nc3cc(-c4c(C)noc4C)ccc3n2[C@H]2CC[C@H](OC)CC2)cc1Cl`, the pIC50 is less than 5.00 in the experiment on CWR22R; 5.59 with SCC-9; 5.25 with MCF7; 5.64 in the experiment on OPM-2 [2]; 7.01 in [3]. In experiment [1], the Activity result is “Dde”.
With `COc1ccc(CCc2nc3cc(C4(C)COC4)ccc3n2C[C@H](C)N2CCOCC2)cc1Cl`, the ΔTm in experiment [4] came to 2.21 °C.
Still for that read-out and setting: the same measure for `CNC(=O)c1ccc2c(c1)nc(CCc1ccc(OC)c(Cl)c1)n2C[C@H](C)N1CCOCC1`: 2.1 °C.
`COc1ccc(CCc2nc3cc(-c4c(C)noc4C)ccc3n2C2CCN(S(C)(=O)=O)CC2)cc1Cl`: in [3], the pIC50 is 6.83.
Still for that read-out and setting: the same measure for `COc1ccc(CCc2nc3cc(-c4c(C)noc4C)ccc3n2C2CCC(F)(F)CC2)cc1Cl`: 7.08.
Turning to `COc1ccc(CCc2nc3cc(-c4c(C)noc4C)ccc3n2C[C@H](C)N2CCOCC2)cc1Cl`, the pIC50 with CWR22R was less than 5.00; with SCC-9, 5.19; in the experiment on MCF7, 5.62; in the experiment on OPM-2 [2], 5.58. Moreover, the ΔTm in experiment [4] worked out at 4.5 °C.
